Assay results taken from patent US20110230471A1, “BENZONAPHTYRIDINE COMPOUNDS AS INHIBITORS OF AUTOTAXIN” (MERCK PATENT GESELLSCHAFT MIT BESCHRANKTER HAFTUNG, priority 2008, published 2011).
pIC50: −log10 of the molar value.

Biological target: T1, recombinant autotaxin (Homo sapiens, UniProt Q13822)
T1 construct: made in house; host or cells: Hi5 insect cells (baculovirus)
Assay: Autotaxin test (enzyme test), Amplex Red
Assay type: biochemical
Details: Autotaxin inhibition (enzyme test), substrate LPC 75 μM
Experimental: The autotaxin activity is measured indirectly using Amplex Red reagent. Amplex Red is measured here as fluorogenic indicator for the H2O2 formed. In detail, autotaxin converts the substrate lysophosphatidylcholine (LPC) into phosphocholine and lysophosphatidylic acid (LPA). After this reaction, the phosphocholine is reacted with alkaline phosphatase to give inorganic phosphate and choline. In the next step, choline is oxidised by choline oxidase to give betaine, with formation of H2O2. H2O2 reacts with Amplex Red reagent in the presence of peroxidase (horseradish peroxidase) in a 1:1 stoichiometry and forms the highly fluorescent resorufin. The fluorescence is measured in a reaction-dependent kinetic mode in order that fluorescent signals from possible other fluorescent substances which are not involved in the reaction can be corrected out.
1.5 μl of a standard solution or of the test substances (substances with the name A(n))in individual concentrations dissolved in 20 mM Hepes pH 7.2 with a maximum of 7.7% of DMSO are pre-incubated together with 10 μl (16 ng) of highly purified recombinant autotaxin in a black microtitre plate provided with 384 wells at 22° C. for 30 min. The reaction is then initiated by addition of 5 μl of L-α-lysophosphatidylcholine (LPC), where the final concentration of LPC is 75 μM. The mixture is incubated at 37° C. for 90 min. After the incubation, Amplex Red reagent, peroxidase (horseradish peroxidase) and choline oxidase is added, and the fluorescence is immediately measured at 612 nm with excitation of 485 nm in a “Tecan Ultra multimode” reader. The activity of autotaxin is calculated indirectly via detection of the H2O2 formed.
• Microtitre plate: PS microplate, 384 wells, small volume, black Corning, Cat#3677 • Protein: recombinant autotaxin (Baculovirale Hi5 Expression) • Substrate: L-α-lysophosphatidylcholine (chicken egg)); Avanti Polar Lipids # 830071 P • Standard: C14 LPA, Avanti Polar Lipids, Cat# 857120P • Detection reagent: Amplex Red reagent; Invitrogen # A12222; dissolved in 1.923 ml of DMSO peroxidase type VI-A (horseradish) from Sigma # P6782; dissolved in 7.45 ml of test buffer, choline oxidase; Sigma # C5896; dissolved in 2.47 ml of test buffer • Detection reagent mix: 1:100 dilution of Amplex Red reagent in test buffer • Test buffer: 200 mM Tris HCl, Merck, Cat # 1.08219, pH 7.9, 0.1% of BSA, lipid-free, Roche Cat#775835

Structure (SMILES): COc1ccc(Cl)cc1NC(=O)CN1CCc2nc3cc(Cl)ccc3c(C(=O)N3CCOCC3)c2C1 [Compound A15, N-(5-Chloro-2-methoxyphenyl)-2-[7-chloro-10-(morpholine-4-carbonyl)-3,4-dihydro-1H-benzo[b][1,6]naphthyridin-2-yl]acetamide]
- pIC50 (TABLE 1 (A compounds)): 6.00 to 7.00

Structure (SMILES): O=C(CN1CCc2nc3ccccc3c(C(=O)N3CCN(CCO)CC3)c2C1)Nc1cc(Cl)ccc1OC(F)(F)F [Compound B4, N-(5-Chloro-2-trifluoromethoxyphenyl)-2-{10-[4-(2-hydroxyethyl)piperazine-1-carbonyl]-3,4-dihydro-1H-benzo[b][1,6]naphthyridin-2-yl}acetamide]
- pIC50 (TABLE 2 (B compounds)): < 6.00

Structure (SMILES): COc1ccc(Br)cc1NC(=O)CN1CCc2nc3ccccc3c(C(=O)N3CCN(CCO)CC3)c2C1 [Compound A69, N-(5-Bromo-2-methoxyphenyl)-2-{10-[4-(2-hydroxyethyl)piperazine-1-carbonyl]-3,4-dihydro-1H-benzo[b][1,6]naphthyridin-2-yl}acetamide]
- pIC50 (TABLE 1 (A compounds)): > 7.00

Structure (SMILES): COc1ccc(Cl)cc1NC(=O)CN1CCc2nc3ccccc3c(C(=O)N3CCN(C)CC3)c2C1 [Compound A1, N-(5-chloro-2-methoxyphenyl)-2-[10-(4-methylpiperazine-1-carbonyl)-3,4-dihydro-1H-benzo[b][1,6]naphthyridin-2-yl]acetamide]
- pIC50 (TABLE 1 (A compounds)): > 7.00

Structure (SMILES): CN1CCC(NC(=O)c2c3c(nc4ccccc24)CCN(CCC(=O)Nc2cc(Cl)ccc2N)C3)CC1 [Compound B37]
- pIC50 (TABLE 2 (B compounds)): < 6.00

Structure (SMILES): COc1ccc(Cl)cc1/C=C/C(=O)N1CCc2nc3ccccc3c(C(=O)NC3CCN(C)CC3)c2C1 [Compound B40, N-(1-Methylpiperidin-4-yl)-2-[(E)-3-(5-chloro-2-methoxyphenyl)acryloyl]-1,2,3,4-tetrahydrobenzo[b][1,6]naphthyridine-10-carboxamide]
- pIC50 (TABLE 2 (B compounds)): < 6.00

Structure (SMILES): COc1ccc(Cl)cc1NC(=O)CN1CCc2nc3ccccc3c(C(=O)N3CCN(Cc4ccccc4)CC3)c2C1 [Compound A30, 2-[10-(4-Benzylpiperazine-1-carbonyl)-3,4-dihydro-1H-benzo[b][1,6]naphthyridin-2-yl]-N-(5-chloro-2-methoxyphenyl)acetamide]
- pIC50 (TABLE 1 (A compounds)): 6.00 to 7.00

Structure (SMILES): CCCN1CCN(C(=O)c2c3c(nc4ccccc24)CCN(CC(=O)Nc2cc(Cl)ccc2OC)C3)CC1 [Compound A29, N-(5-Chloro-2-methoxyphenyl)-2-[10-(4-propylpiperazine-1-carbonyl)-3,4-dihydro-1H-benzo[b][1,6]naphthyridin-2-yl]acetamide]
- pIC50 (TABLE 1 (A compounds)): > 7.00

Structure (SMILES): COc1ccc(Cl)cc1NC(=O)CN1CCc2nc3ccccc3c(C(=O)N3CCN(C(=O)OCc4ccccc4)CC3)c2C1 [Compound A25, 4-{2-[(5-Chloro-2-methoxyphenylcarbamoyl)methyl]-1,2,3,4-tetrahydrobenzo[b][1,6]naphthyridine-10-carbonyl}piperazine-1-carboxylic acid benzyl ester]
- pIC50 (TABLE 1 (A compounds)): 6.00 to 7.00

Structure (SMILES): Cc1ccc(NC(=O)CN2CCc3nc4ccccc4c(C(=O)N4CCN(CCO)CC4)c3C2)cc1Cl [Compound A73, N-(3-Chloro-4-methylphenyl)-2-{10-[4-(2-hydroxyethyl)piperazine-1-carbonyl]-3,4-dihydro-1H-benzo[b][1,6]naphthyridin-2-yl}acetamide]
- pIC50 (TABLE 1 (A compounds)): < 6.00

Structure (SMILES): O=C(CN1CCc2nc3ccccc3c(C(=O)N3CCOCC3)c2C1)Nc1cc(Cl)ccc1OC(F)(F)F [Compound B5, N-(5-Chloro-2-trifluoromethoxyphenyl)-2-[10-(morpholine-4-carbonyl)-3,4-dihydro-1H-benzo[b][1,6]naphthyridin-2-yl]acetamide]
- pIC50 (TABLE 2 (B compounds)): < 6.00

Structure (SMILES): COc1ccc(Cl)cc1NC(=O)CN1CCc2nc3ccccc3c(C(=O)N3CCCN(Cc4ccccc4)CC3)c2C1 [Compound A26, 2-[10-(4-Benzyl-1,4-diazepan-1-carbonyl)-3,4-dihydro-1H-benzo[b][1,6]-naphthyridin-2-yl]-N-(5-chloro-2-methoxyphenyl)acetamide]
- pIC50 (TABLE 1 (A compounds)): 6.00 to 7.00

Structure (SMILES): COc1ccc(Cl)cc1-c1nnc(CN2CCc3nc4ccccc4c(C(=O)NCCN(C)C)c3C2)o1 [Compound B29, N-(2-Dimethylaminoethyl)-2-[5-(5-chloro-2-methoxyphenyl)-1,3,4-oxadiazol-2-ylmethyl]-1,2,3,4-tetrahydrobenzo[b][1,6]naphthyridine-10-carboxamide]
- pIC50 (TABLE 2 (B compounds)): < 6.00

Structure (SMILES): CN1CCC(NC(=O)c2c3c(nc4ccccc24)CCN(Cc2ccc4c(Cl)cc(Cl)c(O)c4n2)C3)CC1 [Compound B57, N-(1-Methylpiperidin-4-yl)-2-(5,7-dichloro-8-hydroxyquinolin-2-ylmethyl)-1,2,3,4-tetrahydrobenzo[b][1,6]naphthyridine-10-carboxamide]
- pIC50 (TABLE 2 (B compounds)): < 6.00

Structure (SMILES): O=C(CN1CCc2nc3ccccc3c(C(=O)N3CCN(CCO)CC3)c2C1)Nc1ccc(N2CCOCC2=O)c(Cl)c1 [Compound A65, N-[3-Chloro-4-(3-oxomorpholin-4-yl)phenyl]-2-{10-[4-(2-hydroxyethyl)-piperazine-1-carbonyl]-3,4-dihydro-1H-benzo[b][1,6]naphthyridin-2-yl}-acetamide]
- pIC50 (TABLE 1 (A compounds)): < 6.00

Structure (SMILES): COc1ccc(Cl)cc1NC(=O)CN1CCc2nc3cc(Br)ccc3c(C(=O)N3CCOCC3)c2C1 [Compound A42, 2-[7-Bromo-10-(morpholine-4-carbonyl)-3,4-dihydro-1H-benzo[b][1,6]-naphthyridin-2-yl]-N-(5-chloro-2-methoxyphenyl)acetamide]
- pIC50 (TABLE 1 (A compounds)): 6.00 to 7.00

Structure (SMILES): COc1ccc(Cl)cc1NC(=O)CN1CCc2nc3ccccc3c(C(=O)NCCF)c2C1 [Compound B42, N-(2-Fluoroethyl)-2-[(5-chloro-2-methoxyphenylcarbamoyl)methyl]-1,2,3,4-tetrahydrobenzo[b][1,6]naphthyridine-10-carboxamide]
- pIC50 (TABLE 2 (B compounds)): < 6.00

Structure (SMILES): CC(C)Oc1ccc(Cl)cc1NC(=O)CN1CCc2nc3ccccc3c(C(=O)N3CCN(CCO)CC3)c2C1 [Compound A60, N-(5-Chloro-2-isopropoxyphenyl)-2-{10-[4-(2-hydroxyethyl)piperazine-1-carbonyl]-3,4-dihydro-1H-benzo[b][1,6]naphthyridin-2-yl}acetamide]
- pIC50 (TABLE 1 (A compounds)): < 6.00

Structure (SMILES): O=C(CN1CCc2nc3ccccc3c(C(=O)N3CCOCC3)c2C1)Nc1cc(Br)cc2ccoc12 [Compound A43, N-(5-Bromobenzofuran-7-yl)-2-[10-(morpholine-4-carbonyl)-3,4-dihydro-1H-benzo[b][1,6]naphthyridin-2-yl]acetamide]
- pIC50 (TABLE 1 (A compounds)): 6.00 to 7.00

Structure (SMILES): O=C(CN1CCc2nc3ccccc3c(C(=O)N3CCOCC3)c2C1)Nc1ccc(Cl)cc1O [Compound A53, N-(4-Chloro-2-hydroxyphenyl)-2-[10-(morpholine-4-carbonyl)-3,4-dihydro-1H-benzo[b][1,6]naphthyridin-2-yl]acetamide]
- pIC50 (TABLE 1 (A compounds)): 6.00 to 7.00

Structure (SMILES): O=C(CN1CCc2nc3ccccc3c(C(=O)N3CCN(CCO)CC3)c2C1)Nc1cc(Cl)cc2ncoc12 [Compound A79, N-(5-Chlorobenzooxazol-7-yl)-2-{10-[4-(2-hydroxyethyl)piperazine-1-carbonyl]-3,4-dihydro-1H-benzo[b][1,6]naphthyridin-2-yl}acetamide]
- pIC50 (TABLE 1 (A compounds)): < 6.00

Structure (SMILES): COc1ccc(Cl)cc1NC(=O)CN1CCc2nc3ccccc3c(C(=O)Nc3ccc4[nH]nnc4c3)c2C1 [Compound B22, N-(1H-Benzotriazol-5-yl)-2-[(5-chloro-2-methoxyphenylcarbamoyl)methyl]-1,2,3,4-tetrahydrobenzo[b][1,6]naphthyridine-10-carboxamide]
- pIC50 (TABLE 2 (B compounds)): 6.00 to 7.00

Structure (SMILES): COc1ccc(Cl)cc1NC(=O)CN1CCc2nc3ccccc3c(C(=O)NC3CCCNC3)c2C1 (stereo not shown) [Compound B53, N-Piperidin-3-yl-2-[(5-chloro-2-methoxyphenylcarbamoyl)methyl]-1,2,3,4-tetrahydrobenzo[b][1,6]naphthyridine-10-carboxamide]
- pIC50 (TABLE 2 (B compounds)): < 6.00

Structure (SMILES): COc1ccc(Cl)cc1-c1nnc(CN2CCc3nc4ccccc4c(C(=O)NCC[N+](C)(C)Cc4nnc(-c5cc(Cl)ccc5OC)o4)c3C2)o1 [Compound B30, [5-(5-Chloro-2-methoxyphenyl)-1,3,4-oxadiazol-2-ylmethyl]-[2-({2-[5-(5-chloro-2-methoxyphenyl)-1,3,4-oxadiazol-2-ylmethyl]-1,2,3,4-tetrahydrobenzo[b][1,6]naphthyridine-10-carbonyl}amino)ethyl]dimethylammonium]
- pIC50 (TABLE 2 (B compounds)): < 6.00

Structure (SMILES): CNC(=O)C(NC(=O)CN1CCc2nc3ccccc3c(C(=O)N3CCN(CCO)CC3)c2C1)c1ccc(Cl)cc1 (stereo not shown) [Compound B2, 2-(4-Chlorophenyl)-2-(2-{10-[4-(2-hydroxyethyl)piperazine-1-carbonyl]-3,4-dihydro-1H-benzo[b][1,6]naphthyridin-2-yl}acetylamino)-N-methylacetamide]
- pIC50 (TABLE 2 (B compounds)): < 6.00
